± gives the expanded uncertainty stated by the source.
Assays:
[1] = for molar entropy: 101.33 kPa, Vacuum adiabatic calorimetry; for vapor or sublimation pressure: Ebulliometric method (Recirculating still)
[2] = Molar enthalpy of transition or fusion; conditions: Crystal; Adiabatic calorimetry

CCCC(=O)OC [methyl butanoate]
[1]
Conditions | Triple point temperature [K] | molar entropy [J/K/mol] | vapor or sublimation pressure [kPa]
5 K, Crystal | – | 0.119 ± 0.017 | –
10 K, Crystal | – | 0.949 ± 0.027 | –
15 K, Crystal | – | 2.987 ± 0.046 | –
20 K, Crystal | – | 6.126 ± 0.068 | –
25 K, Crystal | – | 10.07 ± 0.085 | –
30 K, Crystal | – | 14.55 ± 0.1 | –
35 K, Crystal | – | 19.38 ± 0.12 | –
40 K, Crystal | – | 24.39 ± 0.14 | –
45 K, Crystal | – | 29.43 ± 0.15 | –
50 K, Crystal | – | 34.51 ± 0.17 | –
55 K, Crystal | – | 39.59 ± 0.18 | –
60 K, Crystal | – | 44.66 ± 0.2 | –
65 K, Crystal | – | 49.71 ± 0.21 | –
70 K, Crystal | – | 54.67 ± 0.23 | –
75 K, Crystal | – | 59.5 ± 0.24 | –
80 K, Crystal | – | 64.19 ± 0.25 | –
85 K, Crystal | – | 68.76 ± 0.27 | –
90 K, Crystal | – | 73.24 ± 0.41 | –
95 K, Crystal | – | 77.63 ± 0.42 | –
100 K, Crystal | – | 81.94 ± 0.42 | –
110 K, Crystal | – | 90.3 ± 0.44 | –
120 K, Crystal | – | 98.36 ± 0.45 | –
130 K, Crystal | – | 106.18 ± 0.46 | –
140 K, Crystal | – | 113.66 ± 0.47 | –
150 K, Crystal | – | 120.98 ± 0.48 | –
160 K, Crystal | – | 128.13 ± 0.49 | –
170 K, Crystal | – | 135.11 ± 0.5 | –
180 K, Crystal | – | 141.93 ± 0.51 | –
190 K, Crystal | – | 148.58 ± 0.52 | –
190.09 K, Crystal | – | 148.66 ± 0.52 | –
190.09 K, Liquid | – | 208.44 ± 0.61 | –
200 K, Liquid | – | 217.84 ± 0.63 | –
210 K, Liquid | – | 226.9 ± 0.64 | –
220 K, Liquid | – | 235.55 ± 0.65 | –
230 K, Liquid | – | 243.86 ± 0.67 | –
240 K, Liquid | – | 251.84 ± 0.68 | –
250 K, Liquid | – | 259.58 ± 0.69 | –
260 K, Liquid | – | 267.06 ± 0.7 | –
270 K, Liquid | – | 274.38 ± 0.71 | –
280 K, Liquid | – | 281.36 ± 0.72 | –
290 K, Liquid | – | 288.26 ± 0.73 | –
298.15 K, Liquid | – | 293.75 ± 0.74 | –
300 K, Liquid | – | 295 ± 0.74 | –
310 K, Liquid | – | 301.48 ± 0.75 | –
316.24 K, Liquid | – | – | 10.8 ± 0.054
320 K, Liquid | – | 307.88 ± 0.76 | –
321.02 K, Liquid | – | – | 13.43 ± 0.054
326.17 K, Liquid | – | – | 16.83 ± 0.055
330 K, Liquid | – | 314.12 ± 0.77 | –
331.33 K, Liquid | – | – | 20.88 ± 0.056
335.84 K, Liquid | – | – | 25.07 ± 0.057
340 K, Liquid | – | 320.27 ± 0.78 | –
341.17 K, Liquid | – | – | 30.91 ± 0.059
346.14 K, Liquid | – | – | 37.26 ± 0.061
350 K, Liquid | – | 326.34 ± 0.79 | –
351.81 K, Liquid | – | – | 45.83 ± 0.064
357.57 K, Liquid | – | – | 56.12 ± 0.069
360 K, Liquid | – | 332.33 ± 0.8 | –
363.05 K, Liquid | – | – | 67.49 ± 0.074
368.86 K, Liquid | – | – | 81.57 ± 0.08
370 K, Liquid | – | 338.15 ± 0.81 | –
373.81 K, Liquid | – | – | 95.31 ± 0.086
374.54 K, Liquid | – | – | 97.44 ± 0.087
375.25 K, Liquid | – | – | 99.6 ± 0.089
Crystal, fractional melting | 190.1 ± 0.1 | – | –

Conditions | Molar enthalpy of transition or fusion [kcal/mol]
[2] | 2.72 ± 0.0287

Reference: the NIST ThermoML archive (doi:10.1016/j.jct.2011.10.001)
